According to paper PMC5942844, “Identification and characterization of the Fasciola hepatica sodium- and chloride-dependent taurine transporter” (PLoS Neglected Tropical Diseases, 2018):
Like-named read-outs stand apart in the source and are kept apart here.

Tests used:
[1] = molecular target: T1, F. hepatica taurine transporter (FhTauT) (Fasciola hepatica, UniProt A0A2R4LGM2); assay: [3H]GABA uptake by HEK293 cells expressing the F. hepatica taurine transporter; assay type: cell-based; conditions: 0.3 μM to 3 mM [3H]GABA, three minutes
T1 sequence (A0A2R4LGM2 1-647): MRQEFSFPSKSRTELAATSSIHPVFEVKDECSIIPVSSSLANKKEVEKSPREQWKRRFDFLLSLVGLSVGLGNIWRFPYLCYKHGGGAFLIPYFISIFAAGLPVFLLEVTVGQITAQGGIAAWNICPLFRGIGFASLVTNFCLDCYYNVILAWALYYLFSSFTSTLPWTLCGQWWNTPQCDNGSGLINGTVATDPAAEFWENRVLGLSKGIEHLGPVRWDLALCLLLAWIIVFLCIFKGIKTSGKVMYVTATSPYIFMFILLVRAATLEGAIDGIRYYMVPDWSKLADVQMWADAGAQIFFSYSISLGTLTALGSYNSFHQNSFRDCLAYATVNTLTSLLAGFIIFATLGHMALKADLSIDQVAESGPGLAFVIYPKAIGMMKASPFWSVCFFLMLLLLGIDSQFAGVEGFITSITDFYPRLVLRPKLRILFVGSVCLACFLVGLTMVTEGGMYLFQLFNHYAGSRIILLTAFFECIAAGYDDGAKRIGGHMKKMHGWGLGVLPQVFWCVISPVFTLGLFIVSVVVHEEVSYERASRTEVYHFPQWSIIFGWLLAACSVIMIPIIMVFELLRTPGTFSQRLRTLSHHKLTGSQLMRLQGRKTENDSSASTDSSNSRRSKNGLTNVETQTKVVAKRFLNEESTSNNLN
Experimental: (§1) GABA uptake was assessed by incubating HEK293 cells (10^5/ well) stably expressing the human GABA-transporter-1 (HsGAT1, diamonds), the F. hepatica taurine transporter (FhTauT, circles) and the human taurine transporter (HsTauT, triangles) in KHB containing concentrations of [^3H]GABA covering the range of 0.3 μM to 3 mM for three minutes. The amount of labeled [^3H]GABA was kept constant and the specific activity was progressively diluted by the addition of unlabeled GABA (from 9 Ci/mmol to 9 Ci/mol). The reaction was stopped by the addition of ice-cold KHB followed by three rapid washes. Cells were detached and the accumulated radioactivity was determined by liquid scintillation counting.
(§2) Supplementary file pntd.0006428.s004.tif: S4 Fig [^3H]GABA uptake by the human GABA-transporter-1, the F. hepatica taurine transporter and the human taurine transporter. HEK293 cells (10^5/ well) stably expressing the human GABA-transporter-1 (HsGAT1, diamonds), the F. hepatica taurine transporter (FhTauT, circles) and the human taurine transporter (HsTauT, triangles) were incubated in the presence of the indicated concentrations of [^3H]GABA. The specific activity was progressively diluted by addition of unlabeled GABA (from 9 Ci/mmol to 9 Ci/mol). After three minutes the reaction was stopped and the accumulated radioactivity was determined by liquid scintillation counting. […]

[2] = molecular target: T2, human taurine transporter (HsTauT) (Homo sapiens, UniProt P31641); assay: [3H]taurine uptake by HEK293 cells stably expressing the human taurine transporter; conditions: 0.1 μM [3H]taurine, 10 min
T2 sequence (P31641 1-620): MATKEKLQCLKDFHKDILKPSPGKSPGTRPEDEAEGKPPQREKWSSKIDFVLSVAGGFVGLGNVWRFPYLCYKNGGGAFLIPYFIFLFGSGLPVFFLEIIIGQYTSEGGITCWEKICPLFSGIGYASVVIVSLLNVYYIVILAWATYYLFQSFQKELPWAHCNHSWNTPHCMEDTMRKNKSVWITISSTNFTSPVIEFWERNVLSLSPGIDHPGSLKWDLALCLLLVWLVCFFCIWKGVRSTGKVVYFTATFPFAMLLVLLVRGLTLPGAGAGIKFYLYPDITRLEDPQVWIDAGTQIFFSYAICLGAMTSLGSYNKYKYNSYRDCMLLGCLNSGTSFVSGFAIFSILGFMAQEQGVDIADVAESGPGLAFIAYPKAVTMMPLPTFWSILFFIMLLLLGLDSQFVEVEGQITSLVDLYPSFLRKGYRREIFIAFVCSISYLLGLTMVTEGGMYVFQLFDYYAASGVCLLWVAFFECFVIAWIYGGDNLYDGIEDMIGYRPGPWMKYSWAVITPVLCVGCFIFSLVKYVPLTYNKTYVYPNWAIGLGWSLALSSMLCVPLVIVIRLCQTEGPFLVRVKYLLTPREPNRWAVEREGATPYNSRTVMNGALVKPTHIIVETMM
Experimental: (§3) Human embryonic kidney-293 (HEK293 (ATCC CRL-1573, LGC standards Wesel, Germany)) cells, were grown in Dulbecco`s modified Eagle medium (DMEM) supplemented with 10% fetal bovine serum (FCS Nuaille, France), 100 units/ml penicillin and 100 μg/ml streptomycin at 37°C and with 5% CO2 in a humidified incubator. Cells were transfected with plasmids encoding fluorescently tagged or untagged versions of F. hepatica (FhTauT) and H. sapiens (HsTauT) taurine transporter using Jet Prime transfection reagent (Polyplus-transfection, France). To generate monoclonal cell lines stably expressing the transporters, transfected cells were subjected to and selected with the concentration of 0.2 mg/ml geneticin (G418) for 10 days. Surviving cells forming colonies were separated and analyzed for membrane localization of transporters and transport of taurine. After the selection process cells were kept at 50 μg/ml G418 to keep the selection pressure.
(§4) For saturation uptake experiments, cells were plated the day before the experiment at a density of about 50,000 cells/well onto poly (D-lysine)-coated 48-well culture plates (CytoOne, USA). On the day of the experiment, cells were washed with prewarmed Krebs-HEPES buffer twice (KHB) (120 mM NaCl, 3 mM KCl, 2 mM CaCl2, 2 mM MgCl2, 20 mM glucose, 10 mM HEPES, pH 7.3). Then, cells were incubated in KHB containing tracer amounts (0.1 μM) of [^3H]taurine, (19.1 Ci/mmol) (Perkin Elmer, USA) together with increasing concentrations of non-labeled taurine 10 min. The reaction was terminated after 10 minutes by removing the medium followed by rapid rinsing of cells with ice-cold assay buffer. Subsequently, cells were lysed with 0.5 ml of 1% sodium dodecyl sulfate (SDS) and transferred into scintillation vials for liquid scintillation counting. Non-specific uptake was determined by incubating cells in the presence of the blocker β-alanine (100 mM) before and during the experiment and subtracted from uptake values. Data were fit to a Michaelis-Menten equation.
(§5) Chloride-free KHB was prepared to examine the chloride dependence of both, FhTauT and HsTauT using acetate salts instead of chloride salts. Likewise, NaCl was replaced by choline chloride to examine the sodium requirement. Uptake experiments were performed as described above using 0.1 μM [^3H]taurine in sodium- and chloride-free modified KHB, respectively, mixed with increasing amounts of NaCl containing KHB thereby varying Na^+ and respectively Cl^- concentration from 0–120 mM. The inhibition experiments were performed in analogous manner with 0.1 μM [^3H]taurine and the logarithmically spaced concentrations of inhibitors.

[3] = tested on: taurine transporter (Slc6a6/TauT); conditions: read-out: reported KM for GABA; cited from earlier work
[4] = molecular target: T1, F. hepatica taurine transporter (FhTauT); assay: cell-based
Experimental: as §3, §4, §5

[5] = molecular target: T2, human taurine transporter (HsTauT); assay: [3H]GABA uptake by HEK293 cells expressing the human taurine transporter; assay type: cell-based; parameters: expressed in transfected cells; conditions: 0.3 μM to 3 mM [3H]GABA, three minutes
Experimental: as §1, §2

taurine transporter = tested on: taurine transporter; parameters: method as in PMID 1435737; conditions: 100 μM β-alanine; cited from earlier work

Compound | uptake of [3H]GABA [1] | uptake of [3H]GABA ([1]; listed as [^3H]GABA) | IC50 ([2]; read-out: IC50 for inhibition of [3H]taurine uptake) [µM] | Km [3] [µM] | less potent in inhibiting the F. hepatica than the human transporter [4] | affinity lower than that of taurine ([4]; alternative substrates vs taurine) [fold] | IC50 ([4]; read-out: IC50 for inhibition of [3H]taurine uptake, 0.1 μM [3H]taurine, 10 min) [µM] | uptake of [3H]GABA [5] | IC50 ([2]; IC50 for inhibition of [3H]taurine uptake) [µM] | IC50 [4] [µM] | affinity lower than that of taurine [4] | less potent in inhibiting the F. hepatica than the human transporter ([4]; human, hek293 cells) [fold] | inhibition of uptake (taurine transporter)
NCCCC(=O)O [GABA] | not of GABA | failed to detect any uptake | 1600 ± 500 | 1460 | about 3 fold | ~350 | 5600 ± 900 | failed to detect any uptake | – | – | – | – | –
NCCC(=O)O [β-alanine] | – | – | – | – | – | – | – | – | 132 ± 54 | 713 ± 260 | about 50 fold | ~5 | about 50%
